The text below walks through data of patent US12466849B2, “Anti-viral and anti-tumoral compounds” (YEDA RESEARCH AND DEVELOPMENT CO. LTD, priority 2020, dated 2025).

pEC50: −log10 of the molar value. In brackets after ≈: the same amount, converted by molar mass. Read-outs that look alike come from different tables or passages of the source.

Data set [1] can be described thus: Liver (hepatic) S9 stability, human.
Data set [2] can be described thus: Liver (hepatic) S9 stability, rat.
Data set [3] addresses T1, SARS-Cov2 RdRp (nsp12-nsp7-nsp8) (Severe acute respiratory syndrome coronavirus 2, UniProt P0DTD1). It counts as biochemical. Particulars: after addition of GTP and CTP (third and fourth nucleotides).
In data set [4] the target is T1, SARS-Cov2 RdRp (nsp12-nsp7-nsp8). It is filed as biochemical. The conditions noted are these: primer extension; analog at 100 uM, printed 100 mM.
In data set [5] the test system is enterovirus-68 (EV-68). Briefly: organism not typed. The conditions noted are these: RD, read-out: EQ50.
Data set [6] deals with enterovirus-68 (EV-68).
Another data set relates to HCMV AD169. The experiment in a line: HCMV plaque reduction assay, MRC-5 cells, strain AD169. Particulars: hCMV AD169, MRC5 cells, plaque assay, 6-days duration. It counts as cell-based, Human cytomegalovirus. (Plaques are areas of infected cells; plaque reduction assays count them against a control.)
The test system of data set [7] is Rift Valley fever virus (RVFV).
In data set [8] the test system is Japanese encephalitis virus (JEV).
The subject of data set [9] is Venezuelan equine encephalitis virus (VEEV).
Data set [10] deals with enterovirus-68 (EV-68, US/DY/14-18953).
Data set [11] concerns respiratory syncytial virus (RSV, A2).
For data set [12], the system named is BK virus (BKV), Gardner strain. Also noted: SI50 / SI90: unit not given beside the values.
Data set [13] deals with Tacaribe virus (TCRV, TRVL-11573). More on the design: SI50 (SI): unit not given beside the values.
In data set [14] the test system is influenza/California/07/2009 (H1N1)pdm09.
The subject of data set [15] is Epstein-Barr virus (EBV), Akata strain. Also noted: SI50 / SI90: unit not given beside the values.
Data set [16] deals with dengue virus-2 (DENV-2, New Guinea C). Particulars: SI = CC50/EC50.
For data set [17], the system named is SARS-CoV-2 (USA-WA1/2020).
Data set [18] relates to Influenza B/Florida/4/2006 (Yamagata).
Another data set concerns MERS-CoV (EMC). It counts as cell-based. Particulars: SI = CC50/EC50.
Where [19] appears, read: Vero 76 cells without virus, test compounds.

As a reminder, the microsomal CLint is the rate of metabolic loss divided by the concentration. As usually defined, the half-life is how long it takes for the measured level to halve. With `COc1ccc2c(c1)[C@]13CCCC[C@@H]1[C@H](C2)N(C)CC3` [Dextromethorphan], the T1/2 in [1] (human liver S9, 0.5 mg/mL, NADPH incubation (Table 24 gives without NADPH)) came to 94.0 min. The microsomal CLint at 1 μM in data set [1] (human, s9) is 14.7 µL/min/mg; in [2] (s9), 23.6 µL/min/mg. Besides, the CLhep in data set [1] (human, predicted from S9 CLint (well-stirred model)) was 14.3 mL/min/kg; in data set [2] (predicted from S9 CLint (well-stirred model)), 37.2 mL/min/kg. In [2] (s9), this compound yielded a half-life at 1 μM of 58.8 min.
Turning to `Nc1nc2c(ncn2[C@@H]2OC(COP(=O)(O)OP(=O)(O)OP(=O)(O)O)=C[C@H]2O)c(=O)[nH]1` [ddhGTP, 3′-deoxy-3′,4′-didehydro-guanosine-triphosphate], in data set [3], the “chain termination of RNA synthesis (in words)” value is listed as “caused chain termination of RNA synthesis”. For the same compound, in data set [4], the “incorporation into RNA by SARS-Cov2 RdRp (in words)” value is listed as “incorporates onto RNA as GTP analog”.
With `CCOC(=O)c1ccc(OCCC2CCN(c3ccc(C)nn3)CC2)cc1` [Pirodavir], in the data set on enterovirus-68 (EV-68) [5], the EC50 was 0.039 µg/mL (≈ 0.106 µM). This compound displayed a CC50 with enterovirus-68 (EV-68) [6] (human) of 4.3 µg/mL.
For orientation: pEC50 means −log10 of the EC50, conventionally taken in molar units. Consider `O=c1ccn([C@@H]2OC(CO)=C[C@H]2O)c(=O)[nH]1` [AB21649], for which the CC50 was 1500 µM in the data set with Zika virus; 1400 µM in the data set with influenza A(H1N1); 1300 µM in the data set with Influenza B; 1000 µM with poliovirus-1 (POV-1) (setting [19]); over 100 µM in the data set on MRC-5 cells; over 2000 µM in the data set on SARS-CoV-2. Further, the CC50 with TCRV was 1200 µM; in the data set on influenza A(H5N1) (MDCK cells without virus, test compounds) it was 1300 µM; in the data set on West Nile virus (WNV) it was 1400 µM; in the data set with Yellow fever virus (YFV) (Huh7 cells without virus, test compounds), over 2000 µM; with adenovirus-5 (Ad5), over 2000 µM; in data set [7] (setting [19]) it was 1100 µM. Also, the CC50 is 1700 µM in [8]; 1100 µM in data set [9] (setting [19]); over 2000 µM with Powassan virus (POWV) (BHK-21 cells without virus, test compounds); 390 µM in the data set on enterovirus-68 (EV-68) [6]; 1900 µM in the data set with RSV; 1500 µM with SARS-CoV (setting [19]). Besides, the CC50 in the data set with dengue virus-2 (DV-2) was over 2000 µM. Besides, the pEC50 with Zika virus was under 2.82; with HCMV AD169 it was under 4.00; in the data set on influenza A(H1N1), 3.25; with Influenza B, 3.51; with poliovirus-1 (POV-1) (POV-1, Vero 76 cells, test compounds) it was under 3.00; in the data set with SARS-CoV-2, under 2.70. Further, the pEC50 in the data set with TCRV is under 2.92; in the data set with influenza A(H5N1) (influenza A(H5N1), MDCK cells, test compounds) it was 3.10; in the data set on West Nile virus (WNV), under 2.85; with Yellow fever virus (YFV) (YFV, Huh7 cells, test compounds) it was under 2.70; with adenovirus-5 (Ad5), under 2.70; in data set [7] (RVFV, Vero 76 cells, test compounds) it was under 2.96. The pEC50 in data set [8] was under 2.77; in [9] (VEEV, Vero 76 cells, test compounds) it was under 2.96; in the data set with Powassan virus (POWV) (POWV, BHK-21 cells, test compounds), under 2.70; in the data set with enterovirus-68 (EV-68) [6] (33°C), under 3.41; in the data set with RSV it was under 2.72; in the data set on SARS-CoV (SARS-CoV, Vero 76 cells, test compounds), under 2.82. In the data set on dengue virus-2 (DV-2), this compound gave a pEC50 of under 2.70. Besides, the SI in the data set with Zika virus (Zika, SI = CC50/EC50) is listed as 0; in the data set with influenza A(H1N1) (influenza A(H1N1), SI = CC50/EC50), 2.5; in the data set with Influenza B (Influenza B, SI = CC50/EC50), 4.2; in the data set on poliovirus-1 (POV-1) (POV-1, SI = CC50/EC50), 0; in the data set with SARS-CoV-2 (SARS-CoV-2, SI = CC50/EC50), 0; in the data set with TCRV it was 0. The SI with influenza A(H5N1) (influenza A(H5N1), SI = CC50/EC50) was found to be 1.6; in the data set with West Nile virus (WNV) (WNV, SI = CC50/EC50), 0; in the data set on Yellow fever virus (YFV) (YFV, SI = CC50/EC50), 0; in the data set on adenovirus-5 (Ad5) (Ad5, SI = CC50/EC50) it was 0; in [7] (RVFV, SI = CC50/EC50), 0; in data set [8] (JEV, SI = CC50/EC50) it was 0. The SI in data set [9] (VEEV, SI = CC50/EC50) is 0; in the data set on Powassan virus (POWV) (POWV, SI = CC50/EC50) it was 0; in the data set on enterovirus-68 (EV-68) [6] (EV-68, SI = CC50/EC50), 0; with RSV (RSV, SI = CC50/EC50), 0; in the data set with SARS-CoV (SARS-CoV, SI = CC50/EC50), 0; with dengue virus-2 (DV-2) (DV-2, SI = CC50/EC50), 0. In addition, the “antiviral activity against Influenza (H1N1) (in words)” value with influenza A(H1N1) is given as “exhibits antiviral activity”. In the data set on Influenza B, the “antiviral activity against Influenza B (in words)” value is reported as “exhibits antiviral activity”. For the same compound, in the data set with influenza A(H5N1) (Table 11), the “antiviral activity against Influenza (H5N1) (in words)” value is listed as “exhibits antiviral activity”.
On to `N#C[C@@]1(c2ccc3c(N)ncnn23)OC(COP(=O)(O)OP(=O)(O)OP(=O)(O)O)=C[C@H]1O` [ddhREM-TP, ddhRemdesivir], for which, in data set [3], the “chain termination of RNA synthesis (in words)” value is listed as “caused termination of RNA synthesis”. Besides, the “incorporation into RNA by SARS-Cov2 RdRp (in words)” value in [4] is “incorporated into RNA as ATP analogs”.
For `N#C[C@@]1(c2ccc3c(N)ncnn23)O[C@H](COP(=O)(O)OP(=O)(O)OP(=O)(O)O)[C@@H](O)[C@H]1O` [REM-TP, Remdesivir-TP, reference compound] the same measures were “did not cause chain termination” and “incorporated into RNA as ATP analogs”.
A word on the EC90: it is the concentration needed for an effect of 90%. As to `CC(C)(C)C(=O)SCCOP(=O)(OCCSC(=O)C(C)(C)C)OCC1=CC(O)C(n2ccc(N)nc2=O)O1` (stereo not shown) [SATE-ddhC], the CC50 is over 100 µM in [10]; 540 µM in data set [11]; over 150 µM in data set [12]; 210 µM in [13]; 550 µM in [14]; 124 µM in data set [15]. Also, the CC50 in data set [17] was 410 µM; in [18], over 1000 µM. Further, the “SI50 (SI)” value in data set [10] (EV-68, SI = CC50/EC50) was 0; in [11] (RSV, SI = CC50/EC50) it was 0; in [13], 0; in data set [14] (Influenza(H1N1), SI = CC50/EC50) it was 0; in data set [16], 0; in data set [17] (SARS-CoV-2, SI = CC50/EC50) it was 0. Further, the “SI50 (SI)” value in data set [18] (Influenza B, SI = CC50/EC50) was 0; in the data set with MERS-CoV (EMC) it was 0. Further, the Activity entry is given as “NA (key: NA (Not Active) SI50 = 0-3.9; MOD (Moderately Active) SI50 = 4-9.9; HI (Highly Active) SI50 = ≥10)” in data set [12] and “MOD (key: NA (Not Active) SI50 = 0-3.9; MOD (Moderately Active) SI50 = 4-9.9; HI (Highly Active) SI50 = ≥10)” in [15]. The pEC50 in data set [12] is 4.02; in data set [15] it was 4.73. The EC90 was over 150 µM in data set [12] and over 30 µM in [15]. Also, the SI50 is on record as over 2 in [12] and 7 in data set [15]. Besides, the SI90 in [12] is 1; in [15], under 4. Moreover, the “activity against EBV (in words)” value in data set [15] is on record as “moderately active”.
